According to patent US8389011B2, “Pharmaceutical compositions of cholesteryl ester transfer protein inhibitors” (Bend Research, Inc., priority 2000, dated 2013):

Experiment: In vitro dissolution test, microcentrifuge method, in phosphate buffered saline (PBS) pH 6.5
Assay type: physicochemical
Conditions: for AUC / Drug 2 Concentration: Table 5, PBS pH 6.5, 37° C.; for AUC: dose about 1000 μg/mL; for Drug 2 Concentration: Drug 2 dose about 1000 μg/mL
Description: The compositions comprising the CETP inhibitor and concentration-enhancing polymer provide enhanced concentration of the dissolved CETP inhibitor in in vitro dissolution tests. […] An appropriate PBS solution is an aqueous solution comprising 20 mM sodium phosphate (Na2HPO4), 47 mM potassium phosphate (KH2PO4), 87 mM NaCl, and 0.2 mM KCl, adjusted to pH 6.5 with NaOH. An appropriate MFD solution is the same PBS solution wherein additionally is present 7.3 mM sodium taurocholic acid and 1.4 mM of 1-palmitoyl-2-oleyl-sn-glycero-3-phosphocholine. In particular, a composition of the present invention can be dissolution-tested by adding it to MFD or PBS solution and agitating to promote dissolution.
Indeed, for some extremely insoluble CETP inhibitors, in order to identify the MDC achieved it may be necessary to use an amount of test composition such that if all of the CETP inhibitor dissolved, the CETP inhibitor concentration would be 10,000-fold or even more, that of the equilibrium concentration of the CETP inhibitor.
The MDC is taken to be the maximum value of dissolved CETP inhibitor measured over the duration of the test.
Filtration can be conducted using a 13 mm, 0.45 μm polyvinylidine difluoride syringe filter sold by Scientific Resources under the trademark TITAN®. Centrifugation is typically carried out in a polypropylene microcentrifuge tube by centrifuging at 13,000 G for 60 seconds. Other similar filtration or centrifugation methods can be employed and useful results obtained.
The spray-dried dispersions of Examples 6 and 7 were evaluated in an in vitro dissolution test using a microcentrifuge method. In this test, the spray-dried dispersion was added to a microcentrifuge tube for a Drug 2 dose of about 1000 μg/mL (7.2 mg for Example 6, 18 mg for Example 7). The tube was placed in a 37° C. sonicating bath, and 1.8 mL phosphate buffered saline (PBS) at pH 6.5 and 290 mOsm/kg was added. The samples were quickly mixed using a vortex mixer for about 60 seconds. The samples were centrifuged at 13,000 G at 37° C. for 1 minute. The resulting supernatant solution was then sampled and diluted 1:6 (by volume) with methanol and then analyzed by high-performance liquid chromatography (HPLC). The contents of the tubes were mixed on the vortex mixer and allowed to stand undisturbed at 37° C. until the next sample was taken. Samples were collected at 4, 10, 20, 40, 90, and 1200 minutes.
For Control 2, an in vitro dissolution test was performed using the procedures described above except that 1.8 mg of crystalline Drug 2 was used.
In this method, 7.2 mg of each spray-dried dispersion was added to a 2-mL microcentrifuge tube. The tube was placed in a 37° C. sonicating bath, and 1.8 mL of a phosphate-buffered saline (PBS) solution at pH 6.5 and 290 mOsm/kg was added, resulting in a TCmax of 400 μg/mL. The samples were quickly mixed using a combination of vortex mixer and sonication for about 90 seconds. The samples were centrifuged at 13,000 G at 37° C. for 1 minute. The resulting supernatant solution was then sampled and diluted 1:6 (by volume) with methanol and then analyzed by HPLC. The tubes were then mixed on the vortex mixer and allowed to stand undisturbed at 37° C. until the next sample. Samples were collected at 4, 10, 20, 40, 90 and 1200 minutes.
For Control 5, an in vitro dissolution test was performed using the procedure described above, except that 0.72 mg of non-crystalline Drug 3 was placed in a microcentrifuge tube and mixed with 1.8 mL of PBS.
In this method, 15 mg of each SDD was added to a 2-mL microcentrifuge tube. The tube was placed in a 37° C. sonicating bath, and 1.5 mL of a phosphate-buffered saline (PBS) solution at pH 6.5 and 290 mOsm/kg) was added, resulting in a TCmax of 1000 μg/mL. The samples were quickly mixed using a combination of vortex mixer and sonication for about 90 seconds.

[1] = Table 25: Drug 2, PBS, melt-congeal poloxamer dispersions
[2] = Table 28: Drug 2, PBS, spray-dried poloxamer dispersions
[3] = Table 37: Drug 2, PBS, CMEC dispersions

## CCOC(=O)N1c2ccc(C(F)(F)F)cc2[C@@H](N(Cc2cc(C(F)(F)F)cc(C(F)(F)F)c2)C(=O)OC)C[C@H]1CC [Control 2, [2R,4S]4-[(3,5-bis-trifluoromethyl-benzyl)-methoxycarbonyl-amino]-2-ethyl-6-trifluoromethyl-3,4-dihydro-2H-quinoline-1-carboxylic acid ethyl ester]
PBS, inferred from the accurately measured solubility of crystalline Drug 2
  actual Cmax,90 for Drug 2 in Control 2 (believed): about 0.01 μg/ml
Drug 2, to 0 min
  AUC: 0 min-μg/mL
Drug 2, to 4 min
  AUC: <2 min-μg/mL
Drug 2, to 10 min
  AUC: <8 min-μg/mL
Drug 2, to 20 min
  AUC: <18 min-μg/mL
Drug 2, to 40 min
  AUC: <38 min-μg/mL
Drug 2, to 90 min
  AUC: <88 min-μg/mL
Drug 2, to 1200 min
  AUC: <1,200 min-μg/mL
0 min
  Drug 2 Concentration: 0 µg/mL
4 min
  Drug 2 Concentration: <1 µg/mL
10 min
  Drug 2 Concentration: <1 µg/mL
20 min
  Drug 2 Concentration: <1 µg/mL
40 min
  Drug 2 Concentration: <1 µg/mL
90 min
  Drug 2 Concentration: <1 µg/mL
1200 min
  Drug 2 Concentration: <1 µg/mL
Table 6, area under the aqueous concentration versus time curve after 90 minutes, Drug 2, PBS, TCmax about 1000 μg/mL
  AUC90: <88 min-μg/mL
Table 6, concentration of Drug 2 at 1200 minutes, PBS, TCmax about 1000 μg/mL
  C1200: <1 µg/mL
Table 6, maximum concentration of Drug 2 in solution during the first 90 minutes, PBS, TCmax about 1000 μg/mL
  Cmax, 90: <1 µg/mL
[1]
  AUC90: < 1.47 µg·h/mL
  Cmax, 90: <1 µg/mL
[2]
  AUC90: <88 min-μg/mL
  Cmax, 90: <1 µg/mL
[3]
  AUC90: <88 min-μg/mL
  Cmax, 90: <1 µg/mL
Table 41: Drug 2, PBS
  AUC90: <88 min-μg/mL
  Cmax, 90: <1 µg/mL
Table 44: Drug 2, PBS
  AUC90: <88 min-μg/mL
  Cmax, 90: <1 µg/mL
